The test system of one data set is GPC5. The data set can be described thus: GPC5 expression in PC3M tumours grown as subcutaneous implants in treated mice. The data set is classed as in vivo, athymic nude mice. The settings on record: preliminary. As to the method: (§1) To measure the amount of mature mRNA copies of GPC5 and GPC6 the probe was designed across the exon 1-exon 2 boundary and the exon 7-exon 8 boundary respectively. Applied Biosystems' Predeveloped GAPDH (Glyceraldehyde 3-phosphate dehydrogenase) was used as an endogenous control. 25 μL multiplex PCR reactions were run using 2× Universal TaqMan® Master Mix (Applied Biosystems Pt No. 4304437), the concentration of primers and probes shown in Table 1 and 10 ng of DNA or cDNA. These samples were run in triplicate under standard operating conditions on an ABI7700 SDS TaqMan® Machine (Applied Biosystems, CA). […] Thus, the amount of GPC5 and GPC6 was measured relative to either normal genomic DNA in the case of genomic measurements and to normal muscle in the case of expression measurements. Normal genomic DNA was extracted from the blood of a healthy donor, normal muscle cDNA was produced from RNA extracted from a pool of 11 normal muscle biopsies.
Previous gene profiling studies following treatment of K562 cells with WT1 directed ASOs, identified GPC5 as a putative WT1 target gene (manuscript in preparation). Downregulation of GPC5 expression following WT1 antisense treatment and correlating with reduced WT1 expression was confirmed in independent experiments (see FIG. 6). […]

A further data set relates to WT1. The data set can be described thus: WT1 expression in PC3M tumours grown as subcutaneous implants in treated mice. The data set is classed as in vivo, athymic nude mice. The settings on record: PC3M prostate cancer subcutaneous implants, mice treated with WT1 antisense; preliminary, data not shown. The protocol:
The primer pair and probe for the quantification of WT1 were designed using the Primer Express program (Applied Biosystems) according to the recommended guidelines and as described above.: WT1—Forward primer, 5′-[…]-3′, reverse primer, 5′, […]-3′, and probe, 5′-[…]-3′. Each assay sample was analyzed in triplicate as above, and multiplexed to facilitate the measurement of gene expression levels relative to GAPDH (in vivo tumour samples) or 18 s ribosomal RNA expression (ribosomal RNA control reagents, Applied Biosystems) (in vitro cell line samples) using the standard curve method.
Previous gene profiling studies following treatment of K562 cells with WT1 directed ASOs, identified GPC5 as a putative WT1 target gene (manuscript in preparation). Downregulation of GPC5 expression following WT1 antisense treatment and correlating with reduced WT1 expression was confirmed in independent experiments (see FIG. 6). […] Direct transcriptional regulation of GPC5 by WT1 is likely since GPC5 has two WT1 consensus binding sites in its promoter region.

A further data set relates to HL-60. Description: Clonogenic cell survival assay in soft agar, HL-60 control leukaemic cell line not expressing GPC5. The data set is classed as cell-based. The settings on record: HL-60 cells, compared to sham-treated. The protocol: In this assay, cells are grown at low density in suspension in soft agar following treatment. Each colony formed derives from a single surviving cell. 2 ml aliquots of diluted cells were added to polystyrene tubes (Elkay Products (UK) Ltd., Basingstoke, Hampshire, UK) containing 3 ml of medium supplemented with 20% FCS and 0.2% Agar Noble (DIFCO Laboratories, Detroit, Mich.), incubated at 37° C., and colonies containing at least 32 cells counted after 14 days. The number of colonies formed following drug treatment were compared to the number obtained following sham electroporation or a control scrambled oligonucleotide and expressed as % control treatment. In a number of separate experiments, control plating efficiencies ranged from 22-38%, with 800-1600 cells typically plated. In addition, cells from the dilution series (approx 10^3-10^4 cells/ml) were allowed to grow up in suspension culture in parallel for 3-5 days in order to confirm cytotoxicity.
Two active compounds, ISIS 276107 and ISIS 276119, were identified in this primary screen, reducing GPC5 levels to less than 30% control levels and reducing cell survival by greater than 80% (FIG. 3A). […] FIGS. 3B and C show the effects of ISIS 276107 and a control compound (ISIS 276124) at varying concentrations in the same assay.

The subject of another data set is GPC5 mRNA. Description: GPC5 mRNA quantification (TaqMan) after electroporation of antisense oligonucleotides into K562 cells. The data set is classed as cell-based, human. The protocol: as §1, with “biopsies. […]” for “biopsies.”
(In general: In qPCR the cycle at which signal appears reflects the starting amount.)

The test system of a further data set is K562 cells. Description: Clonogenic cell survival assay in soft agar, K562 cells. The data set is classed as cell-based, human. The protocol:
Antisense or control oligonucleotides were dissolved in PBS and introduced into K562 cells by low voltage electroporation: 40 μl of appropriately diluted ASOs were combined with 360 μl of cell suspension at 2×10^7 cells/ml and cells were electroporated (Bio-Rad Gene Pulser® II Electroporation system with Pulse Controller Plus capacitance extender accessory module, Bio-Rad Laboratories Ltd, Hemel Hempstead, Herts, UK) using 300V and a capacitor value of 1000 μF, and diluted to 10 ml with complete medium. From each sample appropriate duplicate aliquots of cells were serially diluted in complete medium for assessment of cytotoxicity while the remaining cells were incubated at 37° C. for 24 hours ana RNA extracted for quantification of GPC5 and/or WT1 expression levels.
In this assay, cells are grown at low density in suspension in soft agar following treatment. […] 2 ml aliquots of diluted cells were added to polystyrene tubes (Elkay Products (UK) Ltd., Basingstoke, Hampshire, UK) containing 3 ml of medium supplemented with 20% FCS and 0.2% Agar Noble (DIFCO Laboratories, Detroit, Mich.), incubated at 37° C., and colonies containing at least 32 cells counted after 14 days. The number of colonies formed following drug treatment were compared to the number obtained following sham electroporation or a control scrambled oligonucleotide and expressed as % control treatment. […]

Regarding `CC(=O)O[C@@]12CO[C@@H]1C[C@H](O)[C@@]1(C)C(=O)[C@H](O)C3=C(C)[C@@H](OC(=O)[C@H](O)[C@@H](NC(=O)OC(C)(C)C)c4ccccc4)C[C@@](O)([C@@H](OC(=O)c4ccccc4)[C@H]21)C3(C)C` [docetaxol], in the data set on GPC5 (PC3M tumours, mice treated with 15 mg/kg), the “increase in GPC5 expression” value is listed as 5 fold.

In the case of “ASWT1exon5: WT1 antisense oligonucleotide targeting WT1 exon 5, GCCCCTTCTGTCCATTTCACT (SEQ ID NO: 26)”, the “reduction in GPC5 expression” value with GPC5 (PC3M prostate cancer subcutaneous implants, mice treated with WT1 antisense, data not shown) came to 30%. In addition, in the data set on WT1, the “decrease in WT1 expression levels” value is recorded as 50%.

Regarding “ISIS 276107: 20 mer 2'-MOE chimeric phosphorothioate GPC5 antisense oligonucleotide, CAGCCCCCTGACAGCTCCCA (SEQ ID NO: 23) (all phosphorothioate, sugars by position and methylation of C not given here; 2'-MOE wings flank eight-deoxy central gap)”, the “colony number following treatment” value in the data set with HL-60 is “no decrease”.

Regarding “ISIS 276124: control oligonucleotide, TGGATTTGCTTTACACATCACT (SEQ ID NO: 25)”, the “effect on GPC5 expression / GPC5 levels” value in the data set on GPC5 mRNA was “not to affect”. Besides, the “effect on cell viability / cell survival” value with K562 cells is “not to affect”. In addition, the “colony number following treatment” value in the data set on HL-60 was “no decrease”.

Source of the values: patent US7855182B2, “Materials and methods for treatment of cancer” (The Institute of Cancer Research; Royal Cancer Hospital, priority 2004, dated 2010).
